Measurements from BindingDB's records for doi:10.7270/Q2B856KG (Vanderbilt Screening Center For Gpcrs, Ion Channels and …, 2010).

Molecular target: Voltage-dependent T-type calcium channel subunit alpha-1H (Homo sapiens, UniProt O95180)
Assay: PubChem AID 489005

Sequence of Voltage-dependent T-type calcium channel subunit alpha-1H (O95180 whole entry): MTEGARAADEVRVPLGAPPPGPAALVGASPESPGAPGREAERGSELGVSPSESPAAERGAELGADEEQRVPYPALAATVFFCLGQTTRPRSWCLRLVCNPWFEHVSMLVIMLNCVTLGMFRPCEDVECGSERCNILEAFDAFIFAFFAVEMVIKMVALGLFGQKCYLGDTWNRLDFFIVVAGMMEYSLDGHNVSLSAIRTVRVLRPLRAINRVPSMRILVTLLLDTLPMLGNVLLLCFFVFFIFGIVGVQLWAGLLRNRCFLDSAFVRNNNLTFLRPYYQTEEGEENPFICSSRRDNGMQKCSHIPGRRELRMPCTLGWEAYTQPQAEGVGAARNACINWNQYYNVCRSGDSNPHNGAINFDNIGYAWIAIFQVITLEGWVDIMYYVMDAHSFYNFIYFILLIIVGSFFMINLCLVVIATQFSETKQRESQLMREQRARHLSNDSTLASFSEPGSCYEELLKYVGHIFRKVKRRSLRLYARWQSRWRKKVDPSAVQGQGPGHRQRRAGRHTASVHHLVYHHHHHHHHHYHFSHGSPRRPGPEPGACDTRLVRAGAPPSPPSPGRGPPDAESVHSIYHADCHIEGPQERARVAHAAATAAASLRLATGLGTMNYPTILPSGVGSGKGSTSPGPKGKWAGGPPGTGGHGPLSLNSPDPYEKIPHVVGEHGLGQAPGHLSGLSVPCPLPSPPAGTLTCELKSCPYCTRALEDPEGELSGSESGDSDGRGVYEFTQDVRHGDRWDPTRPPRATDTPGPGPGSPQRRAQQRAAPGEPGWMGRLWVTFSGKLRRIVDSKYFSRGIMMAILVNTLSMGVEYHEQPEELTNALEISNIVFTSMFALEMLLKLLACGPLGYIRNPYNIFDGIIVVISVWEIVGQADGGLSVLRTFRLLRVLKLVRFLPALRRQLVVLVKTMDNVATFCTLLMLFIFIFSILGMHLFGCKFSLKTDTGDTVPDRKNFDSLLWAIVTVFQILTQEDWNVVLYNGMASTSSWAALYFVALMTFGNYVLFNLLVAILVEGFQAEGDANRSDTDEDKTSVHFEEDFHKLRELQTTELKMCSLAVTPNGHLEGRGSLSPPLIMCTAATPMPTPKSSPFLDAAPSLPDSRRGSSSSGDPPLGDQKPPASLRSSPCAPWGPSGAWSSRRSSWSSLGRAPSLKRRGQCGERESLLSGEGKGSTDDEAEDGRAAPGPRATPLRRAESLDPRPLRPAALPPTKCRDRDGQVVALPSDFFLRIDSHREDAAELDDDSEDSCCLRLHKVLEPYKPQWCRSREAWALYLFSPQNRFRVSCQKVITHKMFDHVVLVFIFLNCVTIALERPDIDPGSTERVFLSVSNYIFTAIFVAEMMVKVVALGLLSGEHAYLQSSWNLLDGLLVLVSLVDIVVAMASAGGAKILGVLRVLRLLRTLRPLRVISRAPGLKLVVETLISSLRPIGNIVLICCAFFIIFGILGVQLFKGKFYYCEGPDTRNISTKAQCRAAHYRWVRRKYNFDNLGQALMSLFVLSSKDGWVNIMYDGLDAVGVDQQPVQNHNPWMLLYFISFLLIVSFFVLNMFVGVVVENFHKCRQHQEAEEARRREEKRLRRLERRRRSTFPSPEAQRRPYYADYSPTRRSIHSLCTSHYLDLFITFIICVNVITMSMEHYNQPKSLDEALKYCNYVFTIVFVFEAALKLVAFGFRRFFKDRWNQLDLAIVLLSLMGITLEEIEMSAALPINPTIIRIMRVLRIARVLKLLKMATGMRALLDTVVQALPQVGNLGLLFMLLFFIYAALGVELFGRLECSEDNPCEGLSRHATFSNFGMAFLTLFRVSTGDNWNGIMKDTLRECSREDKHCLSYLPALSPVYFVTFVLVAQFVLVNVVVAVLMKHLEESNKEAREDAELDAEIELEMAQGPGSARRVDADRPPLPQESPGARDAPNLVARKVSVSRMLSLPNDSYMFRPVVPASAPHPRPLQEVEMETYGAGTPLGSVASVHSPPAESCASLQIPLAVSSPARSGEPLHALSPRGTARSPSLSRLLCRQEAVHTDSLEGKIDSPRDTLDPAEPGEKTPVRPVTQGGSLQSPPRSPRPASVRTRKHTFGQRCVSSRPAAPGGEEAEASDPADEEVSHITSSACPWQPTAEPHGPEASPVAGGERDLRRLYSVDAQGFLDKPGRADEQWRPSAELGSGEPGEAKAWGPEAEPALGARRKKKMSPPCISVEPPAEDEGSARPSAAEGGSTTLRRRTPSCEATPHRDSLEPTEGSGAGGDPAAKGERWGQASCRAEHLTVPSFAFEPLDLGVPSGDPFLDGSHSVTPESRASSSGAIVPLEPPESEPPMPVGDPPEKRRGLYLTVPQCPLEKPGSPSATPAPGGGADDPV

CC(CC(=O)c1ccncc1)=Nc1ccccc1O and Cc1ccc(-c2csc(NC(=O)c3cccc(-n4c(O)ccc4O)c3)n2)o1 [SMR000018545] are within 1.5-fold of each other in EC50: 3.26 µM for the first, 3.78 µM for the second.

COc1cccc(N2CCN(c3cc(O)n(-c4ccc(Cl)c(Cl)c4)c3O)CC2)c1 [1-(3,4-dichlorophenyl)-3-[4-(3-methoxyphenyl)-1-piperazinyl]pyrrolidine-2,5-dione] and COc1ccc(C(C(=O)C(O)c2c[nH]c3ccccc23)N2CCN(c3ccccc3)CC2)cc1 (stereo unspecified) [MLS000053208] are within 1.5-fold of each other in EC50: 6.84 µM for the first, 8.16 µM for the second.

Going from O=NC1c2cc(S(=O)(=O)N3CCCCC3)ccc2-c2ccc(S(=O)(=O)N3CCCCC3)cc21 [2,7-Bis-(piperidine-1-sulfonyl)-fluoren-9-one oxime] to CCN(CC)S(=O)(=O)c1ccc2c(c1)C(N=O)c1cc(S(=O)(=O)N(CC)CC)ccc1-2 [N2,N2,N7,N7-tetraethyl-9-hydroxyimino-fluorene-2,7-disulfonamide], the EC50 falls from 12.3 µM to 1.6 µM (7.7-fold). The second is the more potent here.

Going from CCCCCCC1=Cc2c/c(=C3/NN=C(c4ccccc4)O3)c(=O)oc2=CC1=O [MLS000068623] to CC(C)CC(C(=O)C(C#N)c1nc2ccccc2[nH]1)N1C(=O)c2ccccc2C1=O (stereo unspecified) [MLS000109709], the EC50 rises from 3 µM to 14.8 µM (4.9-fold).

First: O=NC(c1ccc(Cl)cc1Cl)c1ncc(C(F)(F)F)cc1Cl (stereo unspecified) [MLS000540015]
Second: Oc1cc(SCCc2nc3ccccc3[nH]2)c(O)n1-c1ccc(Cl)cc1 [SMR000199589]
The EC50 of the first is 290-fold lower: 2.11 µM for the first, 613 µM for the second.

Work on CC1CCN(S(=O)(=O)c2ccc(N=NC(C#N)C#N)cc2)CC1 [SMR000162322] yielded an EC50 of 1.52 µM.
